Reference: patent publication US10952992B2, “Methods of treating intraocular pressure with activators of Tie-2” (Aerpio Pharmaceuticals, Inc., priority 2015, dated 2021)
Where “and” joins values, the source holds several entries; their conditions need not be identical. Identical values can stand only once.

System: intraocular pressure in normotensive New Zealand White rabbits
Assay: Example 3 intraocular pressure after repeated topical and subcutaneous administration (pneumotonometer)
Assay type: in vivo
Design: IOP, individual animal / IOP, group Average: unit not given here
Protocol: To measure the tolerability and effect of Compound 1 (sodium salt) on intraocular pressure following repeated topical and subcutaneous administration, normotensive New Zealand White rabbits were treated with Compound 1 (sodium salt). Animals were acclimated 1 to 2 times per day to the intraocular pressure (IOP) measurement procedures prior to initiation of the study to determine baseline IOP levels. IOP acclimation was performed in the two weeks prior to study start for a total of 5 days. Animals with unacceptable IOP values were excluded from the study. Prior to taking all IOP measurements, 1 to 2 drops of a 0.5% proparacaine solution were applied to the eye as a topical anesthetic. OP measurements were performed with a pneumotonometer. Test and control formulations were administered to the animals once or twice daily topically into both eyes or subcutaneously starting on Day 1 according to TABLE 20 and TABLE 21 below. PM dosing, where applicable, was performed ˜8 hours after AM dosing. IOP measurements were performed twice (AM and PM) at baseline (prior to the start of dosing), twice (AM and PM) on Days 1 and 7, and once daily (AM) on Days 2-6 and Day 8. Prior to taking all IOP measurements, 1 to 2 drops of a 0.5% proparacaine solution were applied to the eye as a topical anesthetic. IOP measurements were performed with a pneumotonometer. AM IOP measurements were performed 2 hours after AM dosing; the only exceptions were Day 8 AM measurements, which were performed 24 hours after the final dose. PM IOP measurements were performed ˜5 hours (baseline and Day 1) or ˜4 hours (Day 7) after AM IOP measurements, prior to PM dosing, with at least 15 minutes elapsing between anesthetic application for PM IOP measurements and PM dosing. The final round of slit-lamp examinations was performed on Day 8.

[1] = Group 3: 1.2 mg/eye topical sodium salt BID, Day 5, AM, OD
[2] = Group 3: 1.2 mg/eye topical sodium salt BID, Day 5, AM, OS

COC(=O)N[C@@H](Cc1ccccc1)C(=O)N[C@@H](Cc1ccc(NS(=O)(=O)O)cc1)c1csc(-c2cccs2)n1 [Compound 1]
IOP, individual animal (Group 3: 1.2 mg/eye topical sodium salt BID, Day 4, AM, OS): 23.3 and 21.7 and 24.2 and 24.5 | IOP, group Average [1]: 21.5 | IOP, individual animal [1]: 21.5 and 18.8 and 22.3 and 21.2 | IOP, group Average [2]: 22.0 | IOP, individual animal [2]: 22.3 and 19.8 and 23.5 and 20.7 | IOP, group Average (Group 3: 1.2 mg/eye topical sodium salt BID, Day 6, AM, OD): 24.2 | IOP, group Average (Group 3: 1.2 mg/eye topical sodium salt BID, Day 6, AM, OS): 24.7 | IOP, group Average (Group 3: 1.2 mg/eye topical sodium salt BID, Day 7, AM, OD): 21.3 | IOP, group Average (Group 3: 1.2 mg/eye topical sodium salt BID, Day 7, AM, OS): 22.0 | IOP, group Average (Group 3: 1.2 mg/eye topical sodium salt BID, Day 7, PM, OD): 23.7 | IOP, group Average (Group 3: 1.2 mg/eye topical sodium salt BID, Day 7, PM, OS): 24.2 | IOP, group Average (Group 3: 1.2 mg/eye topical sodium salt BID, Day 8, AM (24 hours after final dose), OD): 23.4 | IOP, group Average (Group 3: 1.2 mg/eye topical sodium salt BID, Day 8, AM (24 hours after final dose), OS): 23.9 | IOP, group Average (Group 4: 1.2 mg/eye topical sodium salt QD, Day 1, AM, OD): 21.2 | IOP, group Average (Group 4: 1.2 mg/eye topical sodium salt QD, Day 1, AM, OS): 21.4 | IOP, group Average (Group 4: 1.2 mg/eye topical sodium salt QD, Day 1, PM, OD): 23.1 | IOP, group Average (Group 4: 1.2 mg/eye topical sodium salt QD, Day 1, PM, OS): 23.2 | IOP, group Average (Group 4: 1.2 mg/eye topical sodium salt QD, Day 2, AM, OD): 20.0 | IOP, group Average (Group 4: 1.2 mg/eye topical sodium salt QD, Day 2, AM, OS): 20.1 | IOP, group Average (Group 4: 1.2 mg/eye topical sodium salt QD, Day 3, AM, OD): 20.8 | IOP, group Average (Group 4: 1.2 mg/eye topical sodium salt QD, Day 3, AM, OS): 20.9 | IOP, group Average (Group 4: 1.2 mg/eye topical sodium salt QD, Day 4, AM, OD): 21.6 | IOP, group Average (Group 4: 1.2 mg/eye topical sodium salt QD, Day 4, AM, OS): 22.6 | IOP, group Average (Group 4: 1.2 mg/eye topical sodium salt QD, Day 5, AM, OD): 21.0 | IOP, group Average (Group 4: 1.2 mg/eye topical sodium salt QD, Day 5, AM, OS): 21.2 | IOP, group Average (Group 4: 1.2 mg/eye topical sodium salt QD, Day 6, AM, OD): 22.5 | IOP, group Average (Group 4: 1.2 mg/eye topical sodium salt QD, Day 6, AM, OS): 23.2 | IOP, group Average (Group 4: 1.2 mg/eye topical sodium salt QD, Day 7, AM, OD): 22.6 | IOP, group Average (Group 4: 1.2 mg/eye topical sodium salt QD, Day 7, AM, OS): 23.0 | IOP, group Average (Group 4: 1.2 mg/eye topical sodium salt QD, Day 7, PM, OD): 24.6 | IOP, group Average (Group 4: 1.2 mg/eye topical sodium salt QD, Day 7, PM, OS): 24.7 | IOP, group Average (Group 4: 1.2 mg/eye topical sodium salt QD, Day 8, AM (24 hours after final dose), OD): 22.7 | IOP, group Average (Group 4: 1.2 mg/eye topical sodium salt QD, Day 8, AM (24 hours after final dose), OS): 22.8 | IOP, group Average (Group 5: 10 mg/kg subcutaneous sodium salt BID, Day 1, AM, OD): 22.3 | IOP, group Average (Group 5: 10 mg/kg subcutaneous sodium salt BID, Day 1, AM, OS): 23.6 | IOP, group Average (Group 5: 10 mg/kg subcutaneous sodium salt BID, Day 1, PM, OD): 23.3 | IOP, group Average (Group 5: 10 mg/kg subcutaneous sodium salt BID, Day 1, PM, OS): 23.6 | IOP, group Average (Group 5: 10 mg/kg subcutaneous sodium salt BID, Day 2, AM, OD): 21.5 | IOP, group Average (Group 5: 10 mg/kg subcutaneous sodium salt BID, Day 2, AM, OS): 21.7 | IOP, group Average (Group 5: 10 mg/kg subcutaneous sodium salt BID, Day 3, AM, OD): 20.7 | IOP, group Average (Group 5: 10 mg/kg subcutaneous sodium salt BID, Day 3, AM, OS): 21.3 | IOP, group Average (Group 5: 10 mg/kg subcutaneous sodium salt BID, Day 4, AM, OD): 21.9 | IOP, group Average (Group 5: 10 mg/kg subcutaneous sodium salt BID, Day 4, AM, OS): 22.2 | IOP, group Average (Group 5: 10 mg/kg subcutaneous sodium salt BID, Day 5, AM, OD): 22.4 | IOP, group Average (Group 5: 10 mg/kg subcutaneous sodium salt BID, Day 5, AM, OS): 23.4 | IOP, group Average (Group 5: 10 mg/kg subcutaneous sodium salt BID, Day 6, AM, OD): 24.5 | IOP, group Average (Group 5: 10 mg/kg subcutaneous sodium salt BID, Day 6, AM, OS): 25.0 | IOP, group Average (Group 5: 10 mg/kg subcutaneous sodium salt BID, Day 7, AM, OD): 23.9 | IOP, group Average (Group 5: 10 mg/kg subcutaneous sodium salt BID, Day 7, AM, OS): 23.9 | IOP, group Average (Group 5: 10 mg/kg subcutaneous sodium salt BID, Day 7, PM, OD): 24.1 | IOP, group Average (Group 5: 10 mg/kg subcutaneous sodium salt BID, Day 7, PM, OS): 24.3 | IOP, group Average (Group 5: 10 mg/kg subcutaneous sodium salt BID, Day 8, AM (24 hours after final dose), OD): 24.5 | IOP, group Average (Group 5: 10 mg/kg subcutaneous sodium salt BID, Day 8, AM (24 hours after final dose), OS): 24.0
